# Assay results from patent US20220275376A1, “TARGETING SLC38A2 IN PANCREATIC CANCER” (New York University, priority 2019, published 2022).
# Tests used:
# PANC1 cells [1] = assay: Intracellular alanine levels in drug-treated PANC1 cells (GC-MS); type: cell-based, human; details: 24 hours, PXT 10 μM, DPM 10, racemic FLX 10 or 25 μM, vs vehicle (DMSO)
# Experimental: (A) Western blot depicting SLC38A2 levels in PANC1 cells engineered to express SLC38A2 under control of doxycycline. Withdrawal of doxycycline results in a significant depletion in SLC38A2 levels after 24 hours.
# Fluvoxamine (FVX), fluoxetine (FLX), paroxetine (PXT), sertindole (SND), and blonanserin (BNS) were acquired from Cayman Chemicals. Desipramine (DPM), α-(Methylamino) isobutyric acid (MeAIB), and L-alanine were acquired from Sigma. Stocks were prepared at 10 mM or 7.5 mM (BNS) in DMSO. Cells were treated with vehicle (DMSO) or varying concentrations of drug for indicated time. Conditioned media was collected and centrifuged at 1,000×g to remove cell debris followed by extraction of metabolites. For metabolite extraction, cells were first washed with ice cold 0.9% NaCl to remove media contamination followed by addition of 500 μL methanol (−20° C.) and 200 μL HPLC grade water (4° C.). Cells were scraped and pipeted into glass vials containing 500 μL chloroform (4° C.) and vortexed at 4° C. for 10-15 minutes. Aqueous and inorganic layers were separated by cold centrifugation for 15 minutes. 300 μL of the aqueous layer containing polar metabolites was transferred to sample vials (Agilent 5190-2243) and evaporated using a SpeedVac (Savant Thermo SPD111V). Dried samples were stored at −20° C. and re-evaporated for 5-10 minutes prior to derivatization and GC-MS analysis.
# SLC38A2 = molecular target: T1, SLC38A2 (Homo sapiens, UniProt Q96QD8); assay: SLC38A2 activity measured by MeAIB uptake in HY15549 dox-inducible SNAT2 cells; type: cell-based; details: for inhibition of MeAIB uptake (intracellular MeAIB levels): 20 μm compound, MeAIB 0.3 mM, 1 hour, vs vehicle (PBS), HY15549 cells expressing dox-inducible SLC38A2/SNAT2
# T1 construct: expressed in transfected cells; host or cells: HY15549 cells with dox-inducible SNAT2
# T1 sequence (Q96QD8 1-506): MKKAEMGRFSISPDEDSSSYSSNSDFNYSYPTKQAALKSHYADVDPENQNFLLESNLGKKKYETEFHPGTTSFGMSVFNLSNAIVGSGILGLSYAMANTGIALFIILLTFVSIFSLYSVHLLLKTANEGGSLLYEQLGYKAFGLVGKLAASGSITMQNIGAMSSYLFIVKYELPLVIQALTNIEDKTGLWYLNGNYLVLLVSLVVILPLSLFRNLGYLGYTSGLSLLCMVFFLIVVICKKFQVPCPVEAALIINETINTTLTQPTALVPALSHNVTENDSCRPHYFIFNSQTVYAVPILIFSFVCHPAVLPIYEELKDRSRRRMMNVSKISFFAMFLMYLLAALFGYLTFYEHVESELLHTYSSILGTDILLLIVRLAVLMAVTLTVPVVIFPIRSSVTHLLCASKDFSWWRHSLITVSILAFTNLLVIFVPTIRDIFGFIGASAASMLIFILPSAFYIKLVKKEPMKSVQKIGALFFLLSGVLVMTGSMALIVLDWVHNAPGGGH
# Experimental: (A) Schematic depicting SLC38A2-dependent update of alanine structural analog, methyl α-aminoisobutyrate (MeAIB). […] (B) Total ion chromatogram (TIC) of HY15549 dox-inducible SNAT2 cells treated with 1 mM MeAIB for 24 hours compared to vehicle (PBS). […] HY15549 dox-inducible SNAT2 cells were cultured with a concentration gradient of MeAIB for 15 minutes (gray circles) or 60 minutes (black squares). (D) Western blot depicting SLC38A2 expression relative to doxycycline after 24 hours culture in HY15549 dox-inducible SNAT2 cells. (E) Intracellular MeAIB levels in HY15549 dox-inducible cells cultured with dox (+SNAT2, left bar) and without dox (KO, right bar) for 24 hours with 1 mM MeAIB. (F) Intracellular MeAIB levels in HY15549 dox-inducible cells cultured with vehicle, paroxetine (PXT, 20 μM), or sertraline (SRT, 20 μm) for 24 hours with 300 μM MeAIB.
# PANC1 cells [2] = assay: Orthotopic xenograft, PANC1 cells; type: in vivo, NCr nude mice; details: for tumor burden (tumor weight after resection): PANC1 (5×10^5) pooled SLC38A2-deficient cells vs sgTom, 63 days; for tumor initiation: SLC38A2 knockdown PANC1 cells (5×10^5), orthotopic, vs shGFP, 3-D ultrasound, tumor if volume ≥1 mm^3
# Experimental: (§1) (A) SLC38A2 staining in pancreatic tumors derived from the KPC (LSL-Kras^G12D; Trp53^lox/+; p48Cre+) mouse model and normal murine pancreas. Representative fields from KPC (4×, left) and normal pancreas (10×, right) are depicted with scale bars. Arrows indicate instances of punctate SLC38A2 in normal pancreas (right). (B) Representative live cell images of HY19636 (left) and mPSC #1 (right) cells transiently transfected with 3 μg of SLC38A2-GFP (green) overnight and stained with MitoTracker (red) to visualize individual cells; scale bars are indicated in figures. […] Subcutaneous tumors were monitored bi-weekly by caliper measurement and considered formed if length and width were measured to be ≥1 mm each. […] Orthotopic xenografts were monitored by 3-D ultrasound bi-weekly and considered tumors if volume ≥1 mm^3. […] HY19636 (2.5×10^4) or PANC1 (5×10^5) control (sgTom) or pooled SLC38A2-deficient (sgSLC38A2 #1, #3) cells were injected orthotopically, and tumors were weighed following resection after 27 days (HY19636) or 63 days (PANC1). Error bars depict s.e.m. of tumors resected from 9-10 mice.
# For orthotopic xenograft experiments, PANC1 cells were infected with lentiviral shRNAs or sgRNAs targeting SLC38A2 or GFP/Tomato as a control and selected with puromycin (2 μg/mL) for three days. For syngeneic orthotopic allograft studies, HY19636 cells were infected with lentiviral sgRNAs targeting SLC38A2 or Tomato and selected with puromycin (2 μg/mL) for three days. 500,000 PANC1 cells or […] HY19636 cells were resuspended in 10 μl HBSS and 10 μl growth factor-reduced matrigel (Corning 356231) per injection and kept on ice. Female 7-8 week old NCr nude or C57BL/6J mice were used for xenograft and allograft experiments, respectively. An incision was made near the spleen which was gently removed from the peritoneal space to expose the pancreas. The 20 μL cell:matrigel suspension was slowly injected into the tail of the exposed pancreas using either a Hamilton or insulin syringe (BD 324702). After injection, the needle was held in place by tweezers briefly to allow the matrigel to polymerize before gently removing the needle and re-introducing the spleen and pancreas into the animal. The peritoneum was sutured and the wound was closed with surgical staples. Buprenorphine was administered by intraperitoneal injection and immediately after surgery and every 12 hours for 48 hours.
# After injection, all mice were allowed to recover from surgery for five days before screening for tumor initiation by non-invasive 3-D ultrasound imaging (VisualSonics Vevo 770) twice a week under anesthesia using 1-3% isoflurane via nose cone. Tumor initiation was considered if volume ≥1 mm^3 and sustained or increased in volume over the course of the experiment. […]
# HY19636 cells = assay: Orthotopic syngeneic allograft, HY19636 cells; type: in vivo, C57BL/6J mice; details: HY19636 (2.5×10^4) pooled SLC38A2-deficient cells vs sgTom, 27 days
# Experimental: as §1
# For orthotopic xenograft experiments, PANC1 cells were infected with lentiviral shRNAs or sgRNAs targeting SLC38A2 or GFP/Tomato as a control and selected with puromycin (2 μg/mL) for three days. […]
# PANC1 cells [3] = assay: Subcutaneous xenograft tumor initiation, PANC1 cells co-injected with hPSC #1 cells; type: in vivo, NCr nude mice; details: SLC38A2 knockdown PANC1 cells (2×10^5) co-injected with hPSC #1 cells (1×10^6), vs shGFP; tumor if length and width ≥1 mm
# Experimental: (A) SLC38A2 staining in pancreatic tumors derived from the KPC (LSL-Kras^G12D; Trp53^lox/+; p48Cre+) mouse model and normal murine pancreas. Representative fields from KPC (4×, left) and normal pancreas (10×, right) are depicted with scale bars. Arrows indicate instances of punctate SLC38A2 in normal pancreas (right). (B) Representative live cell images of HY19636 (left) and mPSC #1 (right) cells transiently transfected with 3 μg of SLC38A2-GFP (green) overnight and stained with MitoTracker (red) to visualize individual cells; scale bars are indicated in figures. […] Subcutaneous tumors were monitored bi-weekly by caliper measurement and considered formed if length and width were measured to be ≥1 mm each. […] Orthotopic xenografts were monitored by 3-D ultrasound bi-weekly and considered tumors if volume ≥1 mm^3. […]
# For subcutaneous co-injection tumor initiation studies, PANC1 cells were infected with lentiviral shRNAs targeting SLC38A2 or GFP as a control shRNA and selected with puromycin (2 μg/mL) for three days. […] Tumor initiation was monitored two to three times per week by caliper measurement. Tumor initiation was considered if length and width were measured to be ≥1 mm each.
compound,measurement,setting,value
CNCCC(Oc1ccc(C(F)(F)F)cc1)c1ccccc1 (racemic) [fluoxetine],reduction of intracellular alanine levels,PANC1 cells [1],~50%
"CNC(C)(C)C(=O)O [MeAIB, α-(Methylamino) isobutyric acid]",Km,"SLC38A2; HY15549 dox-inducible SNAT2 cells, MeAIB concentration gradient, 15 or 60 minutes, read-out: Km of MeAIB uptake (Michaelis-Menten kinetics)",~3.5 mM
CNCCCN1c2ccccc2CCc2ccccc21 [desipramine],reduction of intracellular alanine levels,PANC1 cells [1],~50%
Fc1ccc([C@@H]2CCNC[C@H]2COc2ccc3c(c2)OCO3)cc1 [paroxetine],reduction of intracellular alanine levels,PANC1 cells [1],~50%
same,inhibition of MeAIB uptake (intracellular MeAIB levels),SLC38A2,inhibited
CN[C@H]1CC[C@@H](c2ccc(Cl)c(Cl)c2)c2ccccc21 [sertraline],inhibition of MeAIB uptake (intracellular MeAIB levels),SLC38A2,inhibited
"sgSLC38A2 #1: CRISPR sgRNA targeting SLC38A2, TAATCTGAGCAATGCGATTG (SEQ ID NO:7) (expressed or natural sequence)",tumor burden (tumor weight after resection),PANC1 cells [2],significantly reduced tumor burden
same,tumor burden (tumor weight after resection),HY19636 cells,significantly reduced tumor burden
"sgSLC38A2 #3: CRISPR sgRNA targeting SLC38A2, TCTTATGCCATGGCTAATAC (SEQ ID NO:8) (expressed or natural sequence)",tumor burden (tumor weight after resection),PANC1 cells [2],significantly reduced tumor burden
same,tumor burden (tumor weight after resection),HY19636 cells,significantly reduced tumor burden
"shSLC38A2 #1: lentiviral shRNA targeting SLC38A2, GGAGAAGATACTGTGGCAA (SEQ ID NO:2), TRCN0000020243",tumor initiation,PANC1 cells [2],significantly suppressed
same,tumor initiation,PANC1 cells [3],significantly suppressed
"shSLC38A2 #4: lentiviral shRNA targeting SLC38A2, GAATACCAAGAGTTGTTTCTA (SEQ ID NO:3), TRCN0000020241",tumor initiation,PANC1 cells [2],significantly suppressed
same,tumor initiation,PANC1 cells [3],significantly suppressed
